Columns and labels:
[1] = test system: polyQ inclusions in 150Q Neuro2a cells (tNhtt-EGFP-150Q); assay: ArrayScan quantification of polyQ inclusion formation in inducible 150Q Neuro2a cells; format: cell-based, mouse; conditions: constructs without mRFP, induced and differentiated for 24 hours
Protocol: Mouse neuroblastoma (Neuro2a) cells were maintained in Dulbecco's modified Eagle's medium (Sigma) supplemented with 10% heat-inactivated fetal bovine serum (Sigma), 100 U/ml penicillin and 100 μg/ml streptomycin (Invitrogen) at 37° C. in an atmosphere containing 5% CO2 and 95% air. Establishment of stable Neuro2a cell lines with the ecdysone-inducible mammalian expression system (Invitrogen), that express tNhtt-EGFP-16Q (16Q Neuro2a cells), tNhtt-EGFP-150Q (150Q Neuro2a cells) and tNhtt-EGFP-150Q-nls (150Q-nls Neuro2a cells) has been described earlier (T. Nagai et al., supra, H. Doi et al., supra, E. A. Zemskov et al., J Neurochem. 87, 2 (2003)). Neuro2a cells were differentiated with 5mM dbcAMP (N^6, 2′-O-dibutyryladenosine-3′,5′-cyclic monophosphate sodium salt) (Nacalai Tesque) and induced to express tNhtt-polyQ with 2 μM ponasterone A (ponA; Invitrogen) for indicated times. Neuro2a/FRT/TR cell line was generated as described in the protocol for Flp-in/T-Rex system (Invitrogen). Neuro2a tNhtt-62Q-kikGR cell line was generated by transfecting Neuro2a/FRT/TR cells with the pFRT-HD62-KikGR and pOG44 (Invitrogen) constructs using Lipofectamine 2000 reagent and selected with 200 μg/ml hygromycin. The expression of the pFRT-tNhtt-62Q-KikGR was induced by 18 doxycycline treatment of the cells. For the photo-induced kikGR cleavage, cells were exposed to ˜400 nm wavelength for 5 minutes. Rat pheochromocytoma (PC12) cells were grown in the same conditions as Neuro2a cells, except for the serum composition of 5% of fetal bovine and 10% of horse serum (Sigma). All transient transfections were performed with Lipofectamine 2000 (Invitrogen) according to the manufacturer's instruction.
For the quantification of the inclusions, cells were grown in 24-well plates for indicated periods, fixed in 4% paraformaldehyde, washed and incubated with Hoechst 33258 at 1/1000 dilution in PBS. Cells were analyzed by ArrayScan® V^TI High Content Screening (HSC) Reader (Cellomics) using Target Activation BioApplication (TABA). TABA analyzes images acquired by a HSC Reader and provides measurements of the intracellular fluorescence intensity and localization on a cell-by-cell basis.
In each well, at least 10000 cells were counted and quantified for the presence of the inclusions. Nuclei stained with Hoechst 33285 provided the autofocus target and their count gave the exact number of the quantified cells. The screening itself consisted of two scans using Hoechst, FITC (for GFP) and TRITC (for RFP) fluorescence. Firstly, number of inclusions in transfected cells was calculated when fluorescent spots at size of at least 5 pixels (magnification 20× for cytoplasmic and 40× for nuclear aggregates) with average GFP intensity more than 1500 in the RFP background were counted. Secondly, nuclei were defined as the objects of interest and the cells with average intensity more than 50 within 3 pixels from the nucleus were selected for the analysis. The percentage of the cells with aggregates was then calculated. When the constructs without mRFP were used for transfection, the procedure was same, except the RFP intensity was not measured. Scanning was performed with triplicate or quadruplicate in each experimental condition. Data was generated from the quantification of more than 250,000 cells in each experimental set-up.

[2] = biological target: T1, 150Q-EGFP (Homo sapiens, UniProt P42858); assay: Co-transfection with 150Q-EGFP in Neuro2a cells, confocal imaging with Lysotracker-rhodamine; format: cell-based; conditions: co-expression for 16 hours
T1 construct: N-terminal fragment of human huntington exon 1 (tNhtt); expressed in transfected cells; host or cells: Neuro2a cells, transient co-transfection (pcDNA3.1)
T1 sequence (P42858 with tags, fused parts or gaps): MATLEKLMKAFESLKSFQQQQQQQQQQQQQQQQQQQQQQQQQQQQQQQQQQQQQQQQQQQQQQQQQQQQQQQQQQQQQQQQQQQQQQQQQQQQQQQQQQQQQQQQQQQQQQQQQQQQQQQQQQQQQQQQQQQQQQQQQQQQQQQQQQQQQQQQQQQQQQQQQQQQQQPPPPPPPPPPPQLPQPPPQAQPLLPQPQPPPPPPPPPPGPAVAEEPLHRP
Source text: The construction of the N-terminal fragment of human huntington exon 1 (tNhtt) encoding 60 CAG repeats was previously described (G. H. Wang et al., Neuroreport 10, 12(1999)). This fragment was fused to the N-terminal of a variant of yellow fluorescent protein (Venus) (T. Nagai et al., Nat. Biotechnol. 20, 1 (2002)) and inserted into the pcDNA3.1 vector (60Q). Two Hsc70 binding motifs (HSC70bm) (SEQ ID NOs:9 and 10: in bold) were inserted between the Cfr13I and BamHI cutting sites of 60Q: 5′-GTTAAGAAGGATCAA-GCTGGAGCCGCTGCACCG-AAGTTCGAACGTCAA-3′ (SEQ ID NO:11). The tNhtt-16Q-EGFP and tNhtt-150Q-EGFP plasmids for transient transfection were prepared by the introduction of the coding sequence into pcDNA3.1 vector (Invitrogen). […]
To investigate whether the (R)HQ targets the polyQ to lysosomes, the present inventors co-transfected HQ or other constructs with 16Q-EGFP or 150Q-EGFP to Neuro2a cells for 16 hours. In the cells expressing 16Q-EGFP, none of the co-transfected constructs had any effect on the subcellular distribution of the green fluorescence (FIG. 2C). […] To confirm this observation, the present inventors co-transfected the tested constructs with tNhtt-60Q to Neuro2a cells, 16 hours later purified intact lysosomes and analyzed them for the presence of the polyQ protein. […]

[3] = test system: 150Q Neuro2a cells; assay: Cell death assay (propidium iodide uptake) in 150Q Neuro2a cells; format: cell-based, mouse; conditions: after 60 hours of induction
Protocol: Mouse neuroblastoma (Neuro2a) cells were maintained in Dulbecco's modified Eagle's medium (Sigma) supplemented with 10% heat-inactivated fetal bovine serum (Sigma), 100 U/ml penicillin and 100 μg/ml streptomycin (Invitrogen) at 37° C. in an atmosphere containing 5% CO2 and 95% air. Establishment of stable Neuro2a cell lines with the ecdysone-inducible mammalian expression system (Invitrogen), that express tNhtt-EGFP-16Q (16Q Neuro2a cells), tNhtt-EGFP-150Q (150Q Neuro2a cells) and tNhtt-EGFP-150Q-nls (150Q-nls Neuro2a cells) has been described earlier (T. Nagai et al., supra, H. Doi et al., supra, E. A. Zemskov et al., J Neurochem. 87, 2 (2003)). Neuro2a cells were differentiated with 5mM dbcAMP (N^6, 2′-O-dibutyryladenosine-3′,5′-cyclic monophosphate sodium salt) (Nacalai Tesque) and induced to express tNhtt-polyQ with 2 μM ponasterone A (ponA; Invitrogen) for indicated times. Neuro2a/FRT/TR cell line was generated as described in the protocol for Flp-in/T-Rex system (Invitrogen). […]
For quantification of cell death, 5 μg/ml each of Hoechst 33342 and propidium iodide (PI) were added to differentiated and induced Neuro2a cells transiently transfected with either of the tested constructs (FIG. 6A). After 10 minutes at 37° C., the number of cells with PI uptake over the total number of cells was calculated by ArrayScan.

For “HSC70bm-(QBP1)2 (MARVKKDQAEPLHRKFERQPPGSNWKWWPGIFDSNWKWWPGIFD) [HQ]”, the “decrease of aggregation compared to control counterparts (S and HS)” value [1] was 58.5%, the “subcellular distribution of 150Q-EGFP fluorescence” value [2] was “fluorescence intensity decreased, redistributed and partly co-localized with the lysosomal marker” and the “decrease of the percentage of PI-positive cells” value [3] was 37.4%.
